Laboratory results as given in US11364248B2 (AMGEN INC., priority 2017, dated 2022).
Like-named read-outs stand apart in the source and are kept apart here.

Legend:
OPM-2 = test: Cell Viability Assay (OPM-2 10 FBS); type: cell-based, human; details: OPM-2 cells, CellTiter-Glo, read-out: OPM-2 10% FBS IC50 IP
In short: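 OPM-2 myeloma cells seeded at 3000 cells/well in RPMI 1640 with 10% FBS and exposed to serially diluted compounds for 16 h at 37° C., 5% CO2.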

Mcl-1/Bim interaction = Mcl-1/Bim interaction (Homo sapiens (Human), UniProt Q07820); test: Cell Free Mcl-1: Bim Affinity Assay (Mcl-1 HTRF); type: binding; details: TR-FRET, recombinant human Mcl-1(171-327), biotin-Bim(51-76); read-out: Mel-1 HTRF IC50
In short: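 TR-FRET competition assay: 0.1 nM His-tagged human Mcl-1(171-327) and 0.05 nM biotin-Bim(51-76) were pre-incubated 60 min with compound in 20 mM Hepes pH 7.5, 150 mM NaCl, Brij35, 1 mM DTT, then with Eu-anti-His/streptavidin-Xlent overnight. The 665/620 nm ratio was fitted by four-parameter model to IC50 (duplicates).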

Sequence of Mcl-1/Bim interaction (Q07820 171-327): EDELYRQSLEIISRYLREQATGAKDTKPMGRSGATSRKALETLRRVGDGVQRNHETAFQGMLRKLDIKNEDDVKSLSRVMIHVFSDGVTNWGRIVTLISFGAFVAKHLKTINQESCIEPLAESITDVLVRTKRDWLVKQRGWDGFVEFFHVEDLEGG

Row | Structure (SMILES) | IC50 (OPM-2; Homo sapiens, OPM-2, 16 h) | IC50 (Mcl-1/Bim interaction) | IC50 (OPM-2; 16 h)
1 | C[C@@H]1[C@@H](C)CCC[C@H]([C@H]2OC[C@@H](N3CC4(COC4)C3)CO2)[C@@H]2CC[C@H]2CN2C[C@@]3(CCCc4cc(Cl)ccc43)COc3ccc(cc32)C(=O)NS1(=O)=O [Example 60, (1S,3′R,6′R,7′S,11′S,12′R)-6-chloro-11′,12′-dimethyl-7′-(cis-5-(2-oxa-6-azaspiro[3.3]hept-6-yl)-1,3-dioxan-2-yl)-3,4-dihydro-2H,15′H-spiro[naphthalene-1,22′-[20]oxa[13]thia[1,14]diazatetracyclo [14.7.2.0~3,6~.0~19,24~]pentacosa[16,18,24]trien]-15′-one 13′,13′-dioxide] | 610 nM | 0.897 nM | 
2 | C[C@@H]1[C@@H](C)CCC[C@](C)([C@H]2OC[C@@H](N(C)C)CO2)[C@@H]2CC[C@H]2CN2C[C@@]3(CCCc4cc(Cl)ccc43)COc3ccc(cc32)C(=O)NS1(=O)=O [Example 65, (1S,3′R,6′R,7′S,11′S,12′R)-6-chloro-7′-(cis-5-(dimethylamino)-1,3-dioxan-2-yl)-7′,11′,12′-trimethyl-3,4-dihydro-2H,15′H-spiro[naphthalene-1,22′-[20]oxa[13]thia[1,14]diazatetracyclo [14.7.2.0~3,6~.0~19,24~]pentacosa[16,18,24]trien]-15′-one 13′,13′-dioxide] | 1560 nM | 5.02 nM | 
3 | CCN(C)[C@H]1CO[C@@H]([C@H]2CCC[C@H](C)[C@@H](C)S(=O)(=O)NC(=O)c3ccc4c(c3)N(C[C@@H]3CC[C@H]32)C[C@@]2(CCCc3cc(Cl)ccc32)CO4)OC1 [Example 66, (1S,3′R,6′R,7′S,11′S,12′R)-6-chloro-7′-(cis-5-(ethyl(methyl)amino)-1,3-dioxan-2-yl)-11′,12′-dimethyl-3,4-dihydro-2H,15′H-spiro[naphthalene-1,22′-[20]oxa[13]thia[1,14]diazatetracyclo [14.7.2.0~3,6~.0~19,24~]pentacosa[16,18,24]trien]-15′-one 13′,13′-dioxide] | 326 nM | 1.29 nM | 
4 | C[C@@H]1[C@@H](C)CCC[C@H]([C@H]2OC[C@@H](N(C)C3CC3)CO2)[C@@H]2CC[C@H]2CN2C[C@@]3(CCCc4cc(Cl)ccc43)COc3ccc(cc32)C(=O)NS1(=O)=O [Example 69, (1S,3′R,6′R,7′S,11′S,12′R)-6-chloro-7′-(cis-5-(cyclopropyl(methyl)amino)-1,3-dioxan-2-yl)-11′,12′-dimethyl-3,4-dihydro-2H,15′H-spiro[naphthalene-1,22′-[20]oxa[13]thia[1,14]diazatetracyclo [14.7.2.0~3,6~.0~19,24~]pentacosa[16,18,24]trien]-15′-one 13′,13′-dioxide] |  | 0.535 nM | 415 nM
5 | C[C@@H]1[C@@H](C)CCC[C@H]([C@H]2OC[C@@H](N(C)C3CC3)CO2)[C@@H]2CC[C@H]2CN2C[C@@]3(CCCc4cc(Cl)ccc43)COc3ccc(cc32)C(=O)NS1(=O)=O [Example 70, (1S,3′R,6′R,7′S,11′S,12′R)-6-chloro-7′-(cis-5-(cyclopropyl(methyl)amino)-1,3-dioxan-2-yl)-11′,12′-dimethyl-3,4-dihydro-2H,15′H-spiro[naphthalene-1,22′-[20]oxa[13]thia[1,14]diazatetracyclo [14.7.2.0~3,6~.0~19,24~]pentacosa[16,18,24]trien]-15′-one 13′,13′-dioxide] |  | 1.31 nM | 1580 nM
6 | COCCN(C)[C@H]1CO[C@@H]([C@H]2CCC[C@H](C)[C@@H](C)S(=O)(=O)NC(=O)c3ccc4c(c3)N(C[C@@H]3CC[C@H]32)C[C@@]2(CCCc3cc(Cl)ccc32)CO4)OC1 [Example 71, (1S,3′R,6′R,7′S,11′S,12′R)-6-chloro-7′-(cis-5-((2-methoxyethyl)(methyl)amino)-1,3-dioxan-2-yl)-11′,12′-dimethyl-3,4-dihydro-2H,15′H-spiro[naphthalene-1,22′-[20]oxa[13]thia[1,14]diazatetracyclo [14.7.2.0~3,6~.0~19,24~]pentacosa[16,18,24]trien]-15′-one 13′,13′-dioxide] |  | 0.217 nM | 90 nM
7 | COCCN(C)[C@H]1CO[C@@H]([C@H]2CCC[C@H](C)[C@@H](C)S(=O)(=O)NC(=O)c3ccc4c(c3)N(C[C@@H]3CC[C@H]32)C[C@@]2(CCCc3cc(Cl)ccc32)CO4)OC1 [Example 72, (1S,3′R,6′R,7′S,11′S,12′R)-6-chloro-7′-(cis-5-((2-methoxyethyl)(methyl)amino)-1,3-dioxan-2-yl)-11′,12′-dimethyl-3,4-dihydro-2H,15′H-spiro[naphthalene-1,22′-[20]oxa[13]thia[1,14]diazatetracyclo [14.7.2.0~3,6~.0~19,24~]pentacosa[16,18,24]trien]-15′-one 13′,13′-dioxide] |  | 0.568 nM | 341 nM
8 | C[C@@H]1CC[C@H]([C@H]2OC[C@@H](N(C)C)CO2)[C@@H]2CC[C@H]2CN2C[C@@]3(CCCc4cc(Cl)ccc43)COc3ccc(cc32)C(=O)NS(=O)(=O)C[C@@H]1C [Example 75, (1S,3′R,6′R,7′S,10′R,11′R)-6-chloro-7′-(cis-5-(dimethylamino)-1,3-dioxan-2-yl)-10′,11′-dimethyl-3,4-dihydro-2H,15′H-spiro[naphthalene-1,22′-[20]oxa[13]thia[1,14]diazatetracyclo [14.7.2.0~3,6~.0~19,24~]pentacosa[16,18,24]trien]-15′-one 13′,13′-dioxide] |  | 13 nM | 6770 nM
9 | C[C@@H]1CC[C@H]([C@H]2OC[C@@H](N(C)C)CO2)[C@@H]2CC[C@H]2CN2C[C@@]3(CCCc4cc(Cl)ccc43)COc3ccc(cc32)C(=O)NS(=O)(=O)C[C@@H]1C [Example 76, (1S,3′R,6′R,7′S,10′R,11′R)-6-chloro-7′-(cis-5-(dimethylamino)-1,3-dioxan-2-yl)-10′,11′-dimethyl-3,4-dihydro-2H,15′H-spiro[naphthalene-1,22′-[20]oxa[13]thia[1,14]diazatetracyclo [14.7.2.0~3,6~.0~19,24~]pentacosa[16,18,24]trien]-15′-one 13′,13′-dioxide] |  | 6.24 nM | 2480 nM
10 | C[C@@H]1[C@@H](C)CCC[C@H]([C@H]2OC[C@](N)(CO)CO2)[C@@H]2CC[C@H]2CN2C[C@@]3(CCCc4cc(Cl)ccc43)COc3ccc(cc32)C(=O)NS1(=O)=O [Example 79, (1S,3′R,6′R,7′S,11′S,12′R)-7′-(cis-5-amino-5-(hydroxymethyl)-1,3-dioxan-2-yl)-6-chloro-11′,12′-dimethyl-3,4-dihydro-2H,15′H-spiro[naphthalene-1,22′-[20]oxa[13]thia[1,14]diazatetracyclo [14.7.2.0~3,6~.0~19,24~]pentacosa[16,18,24]trien]-15′-one 13′,13′-dioxide] |  | 0.704 nM | 829 nM
11 | COC[C@H]1[C@@H](C)CCC[C@H]([C@H]2OC[C@@H](N(C)C)CO2)[C@@H]2CC[C@H]2CN2C[C@@]3(CCCc4cc(Cl)ccc43)COc3ccc(cc32)C(=O)NS1(=O)=O [Example 87, (1S,3′R,6′R,7′S,11′S,12′R)-6-chloro-7′-(cis-5-(dimethylamino)-1,3-dioxan-2-yl)-12′-(methoxymethyl)-11′-methyl-3,4-dihydro-2H,15′H-spiro[naphthalene-1,22′-[20]oxa[13]thia[1,14]diazatetracyclo [14.7.2.0~3,6~.0~19,24~]pentacosa[16,18,24]trien]-15′-one 13′,13′-dioxide] |  | 5.71 nM | 735 nM
12 | COC[C@H]1[C@@H](C)CCC[C@H]([C@H]2OC[C@@H](N(C)C)CO2)[C@@H]2CC[C@H]2CN2C[C@@]3(CCCc4cc(Cl)ccc43)COc3ccc(cc32)C(=O)NS1(=O)=O [Example 88, (1S,3′R,6′R,7′S,11′S,12′R)-6-chloro-7′-(cis-5-(dimethylamino)-1,3-dioxan-2-yl)-12′-(methoxymethyl)-11′-methyl-3,4-dihydro-2H,15′H-spiro[naphthalene-1,22′-[20]oxa[13]thia[1,14]diazatetracyclo [14.7.2.0~3,6~.0~19,24~]pentacosa[16,18,24]trien]-15′-one 13′,13′-dioxide] |  | 4.37 nM | 335 nM
